# Data: paper PMC11240878, “Synthesis, enzyme inhibition assay, and molecular modeling study of novel pyrazolines linked to 4-methylsulfonylphenyl scaffold: antitumor activity and cell cycle analysis” (RSC Advances, 2024)
# How the values were obtained:
# OVCAR-8 = experiment: NCI single-dose GI%, ovarian; format: cell-based, human; conditions: OVCAR-8, ovarian; 10.0 μM in one dose
# HL-60(TB) = experiment: NCI single-dose GI%, leukemia; format: cell-based, human; conditions: 10.0 μM in one dose
# RPMI-8226 = experiment: NCI single-dose GI%, leukemia; format: cell-based, human; conditions: RPMI-8226, leukemia; 10.0 μM in one dose
# SK-OV-3 = experiment: NCI single-dose GI%, ovarian; format: cell-based, human; conditions: SK-OV-3, ovarian; 10.0 μM in one dose
# SNB-75 = experiment: NCI single-dose GI%, CNS; format: cell-based, human; conditions: SNB-75, CNS; 10.0 μM in one dose
# [1] = test system: Bcl-2 in MDA-MB-231 cells; experiment: Apoptotic markers assay, Bcl-2; format: cell-based, human; conditions: at IC50 concentration, vs untreated control
# Procedure: (§1) The levels of Bax (apoptosis promoter), Bcl-2 (apoptosis inhibitor), and apoptosis coordination enzymes (caspase-3 and caspase-9) were measured.[78–80]
# HL-60 cells = experiment: Annexin V-FITC/PI apoptosis assay; format: cell-based, human; conditions: 24 h, at IC50 concentration
# From the text: Most anticancer agents kill cancer cells via an apoptosis induction mechanism.[33,77]
# As per our earlier study, we induced apoptosis using the leukemia HL-60 cell line and a widely recognized Annexin 5-FITC/PI detection kit. The cell line samples were examined utilizing a FACSCalibur flow cytometer.[33,77]
# VEGFR2 = VEGFR2 (Homo sapiens, UniProt P35968); experiment: VEGFR2 tyrosine kinase inhibition assay
# Bax in MDA-MB-231 cells = experiment: Apoptotic markers assay, Bax; format: cell-based, human; conditions: at IC50 concentration, vs untreated control
# Procedure: as §1
# Apoptotic markers experiment was performed according to reported procedure using MDA-MB-231 cancer cell line.[78–80]
# NCI/ADR-RES = experiment: NCI single-dose GI%, ovarian; format: cell-based, human; conditions: 10.0 μM in one dose
# HCT-15 = experiment: NCI single-dose GI%, colon; format: cell-based, human; conditions: HCT-15, colon; 10.0 μM in one dose
# SK-MEL-2 = experiment: NCI single-dose GI%, melanoma; format: cell-based, human; conditions: SK-MEL-2, melanoma; 10.0 μM in one dose
# NCI-H322M = experiment: NCI single-dose GI%, NSC lung; format: cell-based, human; conditions: 10.0 μM in one dose
# MDA-MB-231/ATCC = experiment: NCI single-dose GI%, breast; format: cell-based, human; conditions: 10.0 μM in one dose
# NCI-H460 = experiment: NCI single-dose GI%, NSC lung; format: cell-based, human; conditions: 10.0 μM in one dose
# SK-MEL-28 = experiment: NCI single-dose GI%, melanoma; format: cell-based, human; conditions: SK-MEL-28, melanoma; 10.0 μM in one dose
# UACC-62 = experiment: NCI single-dose GI%, melanoma; format: cell-based, human; conditions: UACC-62, melanoma; 10.0 μM in one dose
# SR = experiment: NCI single-dose GI%, leukemia; format: cell-based, human; conditions: 10.0 μM in one dose
# MALME-3M = experiment: NCI single-dose GI%, melanoma; format: cell-based, human; conditions: 10.0 μM in one dose
# KM12 = experiment: NCI single-dose GI%, colon; format: cell-based, human; conditions: 10.0 μM in one dose
# LOX IMVI = experiment: NCI single-dose GI%, melanoma; format: cell-based, human; conditions: 10.0 μM in one dose
# OVCAR-4 = experiment: NCI single-dose GI%, ovarian; format: cell-based, human; conditions: OVCAR-4, ovarian; 10.0 μM in one dose
# OVCAR-3 = experiment: NCI single-dose GI%, ovarian; format: cell-based, human; conditions: OVCAR-3, ovarian; 10.0 μM in one dose
# 786-0 = experiment: NCI single-dose GI%, renal; format: cell-based, human; conditions: 786-0, renal; 10.0 μM in one dose
# NCI-H23 = experiment: NCI single-dose GI%, NSC lung; format: cell-based, human; conditions: 10.0 μM in one dose
# SW-620 = experiment: NCI single-dose GI%, colon; format: cell-based, human; conditions: SW-620, colon; 10.0 μM in one dose
# ACHN = experiment: NCI single-dose GI%, renal; format: cell-based, human; conditions: 10.0 μM in one dose
# MDA-MB-435 = experiment: NCI single-dose GI%, melanoma; format: cell-based, human; conditions: MDA-MB-435, melanoma; 10.0 μM in one dose
# SK-MEL-5 = experiment: NCI single-dose GI%, melanoma; format: cell-based, human; conditions: SK-MEL-5, melanoma; 10.0 μM in one dose
# SF-295 = experiment: NCI single-dose GI%, CNS; format: cell-based, human; conditions: SF-295, CNS; 10.0 μM in one dose
# SF-268 = experiment: NCI single-dose GI%, CNS; format: cell-based, human; conditions: SF-268, CNS; 10.0 μM in one dose
# M14 = experiment: NCI single-dose GI%, melanoma; format: cell-based, human; conditions: 10.0 μM in one dose
# HCT-116 = experiment: NCI single-dose GI%, colon; format: cell-based, human; conditions: HCT-116, colon; 10.0 μM in one dose
# MDA-MB-468 = experiment: NCI single-dose GI%, breast; format: cell-based, human; conditions: MDA-MB-468, breast; 10.0 μM in one dose
# SNB-19 = experiment: NCI single-dose GI%, CNS; format: cell-based, human; conditions: SNB-19, CNS; 10.0 μM in one dose
# A498 = experiment: NCI single-dose GI%, renal; format: cell-based, human; conditions: 10.0 μM in one dose
# IGROV1 = experiment: NCI single-dose GI%, ovarian; format: cell-based, human; conditions: 10.0 μM in one dose
# NCI-H226 = experiment: NCI single-dose GI%, NSC lung; format: cell-based, human; conditions: 10.0 μM in one dose
# DU-145 = experiment: NCI single-dose GI%, prostate; format: cell-based, human; conditions: DU-145, prostate; 10.0 μM in one dose
# [2] = test system: breast adenocarcinoma MCF-7; conditions: human, 48 h
# SN12C = experiment: NCI single-dose GI%, renal; format: cell-based, human; conditions: 10.0 μM in one dose
# Sequence of VEGFR2 (P35968 20-1356): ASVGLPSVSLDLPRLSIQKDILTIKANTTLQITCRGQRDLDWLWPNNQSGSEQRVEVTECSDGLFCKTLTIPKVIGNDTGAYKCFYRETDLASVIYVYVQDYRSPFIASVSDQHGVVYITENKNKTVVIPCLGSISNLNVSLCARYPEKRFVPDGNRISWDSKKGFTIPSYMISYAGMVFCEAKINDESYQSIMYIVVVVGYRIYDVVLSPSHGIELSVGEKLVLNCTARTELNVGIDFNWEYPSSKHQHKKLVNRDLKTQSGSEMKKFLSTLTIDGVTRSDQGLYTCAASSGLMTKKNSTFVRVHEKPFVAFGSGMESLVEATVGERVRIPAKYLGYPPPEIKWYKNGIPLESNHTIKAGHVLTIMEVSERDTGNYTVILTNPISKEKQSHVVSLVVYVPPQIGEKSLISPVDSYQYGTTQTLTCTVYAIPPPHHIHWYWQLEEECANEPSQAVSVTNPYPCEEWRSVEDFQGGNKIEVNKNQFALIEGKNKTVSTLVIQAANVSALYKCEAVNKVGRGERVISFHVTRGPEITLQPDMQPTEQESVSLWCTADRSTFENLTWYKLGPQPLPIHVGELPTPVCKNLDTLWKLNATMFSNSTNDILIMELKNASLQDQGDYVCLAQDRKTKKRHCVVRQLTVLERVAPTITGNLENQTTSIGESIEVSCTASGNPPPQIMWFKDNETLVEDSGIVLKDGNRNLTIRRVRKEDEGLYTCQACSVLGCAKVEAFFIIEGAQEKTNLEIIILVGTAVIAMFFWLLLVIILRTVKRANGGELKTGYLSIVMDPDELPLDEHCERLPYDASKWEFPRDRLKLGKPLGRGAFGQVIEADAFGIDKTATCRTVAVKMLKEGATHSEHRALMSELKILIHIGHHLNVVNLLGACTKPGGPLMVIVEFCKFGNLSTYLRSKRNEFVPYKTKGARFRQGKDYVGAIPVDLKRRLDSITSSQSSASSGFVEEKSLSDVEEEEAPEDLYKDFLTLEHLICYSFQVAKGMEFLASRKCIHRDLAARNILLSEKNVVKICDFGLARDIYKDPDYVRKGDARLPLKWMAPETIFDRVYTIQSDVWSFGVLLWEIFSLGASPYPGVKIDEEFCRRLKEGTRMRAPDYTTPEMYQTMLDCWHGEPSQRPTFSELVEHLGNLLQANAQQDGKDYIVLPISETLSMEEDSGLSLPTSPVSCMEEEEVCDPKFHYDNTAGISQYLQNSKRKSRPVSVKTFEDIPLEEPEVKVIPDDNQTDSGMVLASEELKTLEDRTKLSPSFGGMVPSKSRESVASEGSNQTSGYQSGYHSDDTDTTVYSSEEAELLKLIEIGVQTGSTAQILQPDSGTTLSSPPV
structure (smiles),measurement,setting,value
"CS(=O)(=O)c1ccc(C(=O)N2N=C(c3ccccc3)CC2c2ccc(F)cc2)cc1 (stereo not drawn) [Compound 18c, (5-(4-Fluorophenyl)-3-phenyl-4,5-dihydro-1H-pyrazol-1-yl)(4-(methylsulfonyl)phenyl)methanone]",GI%,OVCAR-8,20%
same,GI%,HL-60(TB),46%
same,GI%,RPMI-8226,20%
same,GI%,SK-OV-3,14%
same,GI%,SNB-75,14%
same,Bcl2 gene expression (fold change),[1],0.184 fold change
same,Apoptosis Early,HL-60 cells,2.91%
same,Apoptosis Late,HL-60 cells,4.4%
same,Apoptosis Total (percentage of annexin V-FITC positive cells),HL-60 cells,8.06%
same,Necrosis,HL-60 cells,0.76%
same,IC50,VEGFR2,218 ± 5 nM
same,Bax gene expression (fold change),Bax in MDA-MB-231 cells,4.413 fold change
"Cc1ccc(C2=NN(C(=O)c3ccc(S(C)(=O)=O)cc3)C(c3ccc(C)cc3)C2)cc1 (stereo not drawn) [Compound 18g, (3,5-Bis(4-tolyl)-4,5-dihydro-1H-pyrazol-1-yl)(4-(methylsulfonyl)phenyl)methanone]",GI%,NCI/ADR-RES,38%
same,GI%,HCT-15,45%
same,GI%,SK-MEL-2,33%
same,GI%,HL-60(TB),66%
same,GI%,NCI-H322M,12%
same,GI%,MDA-MB-231/ATCC,14%
same,GI%,NCI-H460,17%
same,GI%,SK-MEL-28,23%
same,GI%,UACC-62,36%
same,GI%,SK-OV-3,26%
same,GI%,SR,50%
same,GI%,MALME-3M,14%
same,GI%,SNB-75,30%
same,GI%,KM12,37%
same,GI%,LOX IMVI,16%
same,GI%,OVCAR-4,22%
same,GI%,OVCAR-3,24%
same,GI%,786-0,22%
same,GI%,NCI-H23,12%
same,GI%,SW-620,25%
same,GI%,ACHN,12%
same,GI%,MDA-MB-435,76%
same,Bcl2 gene expression (fold change),[1],0.252 fold change
same,GI%,SK-MEL-5,38%
same,GI%,SF-295,30%
same,GI%,SF-268,11%
same,GI%,M14,32%
same,GI%,HCT-116,37%
same,Apoptosis Early,HL-60 cells,4.47%
same,Apoptosis Late,HL-60 cells,7.84%
same,Apoptosis Total (percentage of annexin V-FITC positive cells),HL-60 cells,13.69%
same,Necrosis,HL-60 cells,1.38%
same,GI%,MDA-MB-468,45%
same,IC50,VEGFR2,168 ± 3 nM
same,Bax gene expression (fold change),Bax in MDA-MB-231 cells,3.054 fold change
same,GI%,SNB-19,13%
same,GI%,A498,16%
same,GI%,IGROV1,23%
"CS(=O)(=O)c1ccc(C(=O)N2N=C(c3ccccc3)CC2c2ccccc2O)cc1 (stereo not drawn) [Compound 18h, (5-(2-Hydroxyphenyl)-3-phenyl-4,5-dihydro-1H-pyrazol-1-yl)(4-(methylsulfonyl)phenyl)methanone]",GI%,NCI/ADR-RES,22%
same,GI%,OVCAR-8,41%
same,GI%,HCT-15,56%
same,GI%,SK-MEL-2,28%
same,GI%,HL-60(TB),73%
same,GI%,NCI-H322M,48%
same,GI%,MDA-MB-231/ATCC,32%
same,GI%,NCI-H460,54%
same,GI%,NCI-H226,15%
same,GI%,SK-MEL-28,11%
same,GI%,RPMI-8226,16%
same,GI%,UACC-62,12%
same,GI%,SK-OV-3,25%
same,GI%,SR,30%
same,GI%,MALME-3M,21%
same,GI%,DU-145,19%
same,GI%,KM12,21%
same,GI%,LOX IMVI,34%
same,GI%,OVCAR-4,22%
same,GI%,OVCAR-3,35%
same,GI%,786-0,33%
same,GI%,NCI-H23,12%
same,IC50,[2],12500 ± 550 nM
same,GI%,ACHN,25%
same,GI%,SN12C,17%
same,Bcl2 gene expression (fold change),[1],0.423 fold change
same,GI%,SK-MEL-5,38%
same,GI%,SF-295,23%
same,GI%,SF-268,39%
same,GI%,M14,29%
same,GI%,HCT-116,35%
same,Apoptosis Early,HL-60 cells,6.18%
same,Apoptosis Late,HL-60 cells,3.34%
same,Apoptosis Total (percentage of annexin V-FITC positive cells),HL-60 cells,10.77%
same,Necrosis,HL-60 cells,1.25%
same,GI%,MDA-MB-468,17%
same,IC50,VEGFR2,135 ± 9 nM
same,Bax gene expression (fold change),Bax in MDA-MB-231 cells,2.154 fold change
same,GI%,SNB-19,17%
same,GI%,IGROV1,28%
